Source: patent publication EP0098942A1, “Optically active imidazolylpropanol compounds, and their production and use” (SUMITOMO CHEMICAL COMPANY, LIMITED, priority 1982, dated 1984)

What was measured:
[1] = system: Candida albicans, strain KB-8 (clinical isolate); assay: In vitro inhibition of pseudomycelium formation; assay type: cell-based; conditions: effective dose to inhibit formation of pseudomycelium, light microscopy at 72 hours after inoculation, Eagle's MEM, 37°C, 5 % CO2, read-out: Minimum effective dose
Description: Candida albicans, strain KB-8 (clinical isolate), was maintained on Sabouraud's agar slants at room temperature. Yeast cells were grown at 37°C on Sabouraud's agar and a loopful from a 24 hours' slant was inoculated in 4.5 ml of Sabouraud's broth and cultured at 37°C for 24 hours. A 0.5 ml aliquot of this culture was inoculated in 100 ml of a casein hydrolysate yeast-extract glucose medium (CYG medium). Cells were grown at 37°C aerobically in a reciprocating shaker for 48 hours. From this culture, a 0.2 ml aliquot was again inoculated in 100 ml CYG medium and grown for another 24 hours at 37°C while shaking.
The pseudomycelium growth-promoting medium consisted of Eagle's minimal essential medium supplemented with non-essential amino acids and sodium bicarbonate (2 g/liter). Yeast cells were seeded at densities of 1.0 x 10^5/ml in sterile culture tubes (010 x 100 mm) containing 3 ml of medium. Cells were grown in a humidified atmosphere of 5 % C02 in air at 37°C.
The effects of the test compound were evaluated . under the following conditions: the cultures were exposed to the test compound in doses ranging from […] to 10^-4 M; the solvent for the test compound was added as an aqueous solution. Pseudomycelium development was observed by light microscopy at 72 hours after inoculation.

Candida albicans KB-8 = assay: Number of viable cells in the kidney of Candida-infected mice; assay type: in vivo, DDY strain male mice; conditions: per os, total dose 20 mg/kg; for Medicated group, number of cells in kidney (cell/g): given immediately and 5 hours after infection, kidneys taken 24 hours after infection; for Medicated/ Non-medicated (logarithmic value): kidney cell count 24 hours after infection, non-medicated group 1.45x10^5 cell/g
Description: Candida albicans KB-8 was cultured on a Sabouraud's agar plate admixed with blood in a concentration of 5 % (v/v) - at 30°C for 4 days, suspended in physiologically saline solution and diluted to approximately 10,000,000 cells/ml. DDY strain male mice were […] via the tail vein with 0.2 ml of this suspension.
The animals were orally medicated with the test compound in the form of 0,5 % (w/v) methylcellulose supension at a total dose of 20 mg per kg of the body weight immediately and 5 hours after the infection.
After 24 hours from the infection, the animals were sacrificed, and the kidneys were taken out. After the kidneys were homogenized in 4 fold sterilized physiologically saline solution, a certain amount of the suspension was scattered on a Sabouraud's agar plate and cultured at 37°C for 48 hours. Then, the number of colonies was counted, the number of cells per one gram of the kidney was calculated, and the difference between the calculated numbers in the medicated group and in the non- medicated group was expresed by a logarithmic value.

CCCCSC[C@](O)(Cn1ccnc1)c1ccc(Cl)cc1Cl [I (n=3), (R)-3-(n-butylthio)-2-(2,4-dichlorophenyl)-1-(imidazol-1-yl)-2-propanol]
minimal effective concentration [1]: 0.001 µM
Medicated group, number of cells in kidney (cell/g) (Candida albicans KB-8): 1.41x10^3 cell/g
Medicated/ Non-medicated (logarithmic value) (Candida albicans KB-8): -2.01

CCCCSC[C@@](O)(Cn1ccnc1)c1ccc(Cl)cc1Cl [B, (S)-3-(n-butylthio)-2-(2,4-dichlorophenyl)-1-(imidazol-1-yl)-2-propanol]
minimal effective concentration [1]: 1 µM
Medicated group, number of cells in kidney (cell/g) (Candida albicans KB-8): 1.82x10^4 cell/g
Medicated/ Non-medicated (logarithmic value) (Candida albicans KB-8): -0.90

CCCCSCC(O)(Cn1ccnc1)c1ccc(Cl)cc1Cl (racemic) [A]
minimal effective concentration [1]: 0.1 µM
Medicated group, number of cells in kidney (cell/g) (Candida albicans KB-8): 1.86x10^3 cell/g
Medicated/ Non-medicated (logarithmic value) (Candida albicans KB-8): -1.89
